Patent US20160120861A1, “Compositions and Methods for Treating an Arrhythmia with an Opioid Antagonist” (PURDUE PHARMA L.P., priority 2013, published 2016)

Test: QT study following E14 principles: ECG effects (QTcI) of BTDS alone, BTDS with naltrexone, naltrexone and moxifloxacin relative to placebo
Conditions: for Mean change from baseline (QTcI): 24-hr ECG at steady state
Procedure: A QT study following E14 principles regarding design, conduct, analysis, and interpretation was conducted with the following objectives
Primary: • To evaluate the ECG effects of 10, 40, and 80 mcg/hr buprenorphine delivered by a Buprenorphine Transdermal System (BTDS) alone, or by BTDS dosed with naltrexone tablets, relative to placebo in healthy male and female subjects
To evaluate the ECG effects of moxifloxacin relative to placebo (assay sensitivity)
To evaluate the ECG effects of BTDS+Naltrexone (NTX) vs. BTDS alone
To evaluate the ECG effects of naltrexone alone vs. placebo
The study was a randomized, double-blind, placebo and positive controlled, parallel group study with the following parameters:
• Healthy male or female subjects aged 18 to 55 years, inclusive • Heart rate between 45-85 bpm • No clinically significant medical history or disease • Subjects with personal or family history of prolonged QT interval or abnormal cardiovascular condition excluded
60 subjects/treatment group
• 1) BTDS alone (Butrans® 5, 10, 20, 40, 80 mcg/hr) • 2) Moxifloxacin (400 mg single doses on Days 6, 13, 17) • 3) Placebo • 4) Naltrexone alone (NTX 50 mg q12 h days 4-17) • 5) BTDS+Naltrexone (BTDS 10, 20, 40, 80 mcg/hr with NTX 50 mg q12 h days 4-17)
BTDS or matching placebo patches were applied according to a dose-escalation and dose tapering scheme
24-hr ECG were collected at steady-state for each BTDS dose level at Days 6 (10 mcg/hr), 13 (40 mcg/hr) and 17 (80 mcg/hr).
Continuous 24-hr 12-lead digital Holter ECG collections were performed as follows: • Two 24-hour baseline recordings (Days −2 and −1) • Three 24-hour periods on-treatment for Days 6 (10 mcg/hr), 13 (40 mcg/hr) and 17 (80 mcg/hr).
ECGs were extracted at 13 time points (0, 0.5, 1, 1.5, 2, 2.5, 3, 4, 7, 10, 13, 18, 23.5 hours) over each 24-hour ECG recording period.
Subjects rested supine for at least 10 minutes prior to each nominal ECG extraction time and activity was limited for the prior 2 hours.
4 ECGs were extracted and quantified at each nominal time point by a blinded central ECG laboratory.
The primary QT correction for heart rate was QTcI. 104 baseline ECGs were used to determine subject-specific HR correction.
Placebo-corrected change from baseline QTcI means and 90% CIs were calculated using a mixed effects general linear model with covariates for time, treatment, time by treatment interaction, and sex.

Row | Compound | >60 ms inc, N (%) (both, human, in vivo) | New >480 ms, N (%) (both, human, in vivo) | New >500 ms, N (%) (both, human, in vivo) | QTcI results (positive control, assay sensitivity) (in vivo) | >30-60 ms inc, N (%) (Day 6, QTcI, healthy subjects) | >60 ms inc, N (%) (Day 6, QTcI, healthy subjects) | New >480 ms, N (%) (Day 6, QTcI, healthy subjects) | New >500 ms, N (%) (Day 6, QTcI, healthy subjects) | Mean change from baseline (QTcI) (Day 6, healthy subjects) [ms] | >30-60 ms inc, N (%) (Day 13, QTcI, healthy subjects) | >60 ms inc, N (%) (Day 13, QTcI, healthy subjects) | New >480 ms, N (%) (Day 13, QTcI, healthy subjects) | New >500 ms, N (%) (Day 13, QTcI, healthy subjects) | Mean change from baseline (QTcI) (Day 13, healthy subjects) [ms] | >30-60 ms inc, N (%) (Day 17, QTcI, healthy subjects) | >60 ms inc, N (%) (Day 17, QTcI, healthy subjects) | New >480 ms, N (%) (Day 17, QTcI, healthy subjects) | New >500 ms, N (%) (Day 17, QTcI, healthy subjects) | Mean change from baseline (QTcI) (Day 17, healthy subjects) [ms] | Mean change in baseline of the QT interval as compared to buprenorphine alone (naltrexone administered with buprenorphine)
1 | COc1c(N2C[C@@H]3CCCN[C@@H]3C2)c(F)cc2c(=O)c(C(=O)O)cn(C3CC3)c12 [Moxifloxacin] | 0 N (%) | 0 N (%) | 0 N (%) | as expected | – | – | – | – | – | – | – | – | – | – | – | – | – | – | – | –
2 | O=C1CC[C@@]2(O)[C@H]3Cc4ccc(O)c5c4[C@@]2(CCN3CC2CC2)[C@H]1O5 [NTX, naltrexone] | – | – | – | – | 0 N (%) | 0 N (%) | 0 N (%) | 0 N (%) | 1.5 | 1 (2%) N (%) | 0 N (%) | 0 N (%) | 0 N (%) | -1.7 | 1 (2%) N (%) | 0 N (%) | 0 N (%) | 0 N (%) | -0.9 | reduced
